From patent US20080280953A1, “Agents Used for the Treatment of Seeds” (Bayer Cropscience AG, priority 2004, published 2008)

System: adults of the green stink bug (Piezodorus guildingi)
Assay: Piezodorus guildingi test, open land (spray treatment)
Format: in vivo
Details: 300 g/ha, soy bean plants
Description: To prepare a suitable active compound preparation 1 part by weight of the active compound is mixed with the given amount of water to the desired concentration.
Soy bean plants (Glycine max) infested with the adults of the green stink bug (Piezodorus guildingi) are treated with an active compound preparation at the desired concentration.
After the desired time the death rate in % is determined. Here 100% means that all bugs were killed; 0% means that no bugs were killed.

Structure (SMILES): CN(Cc1ccc(Cl)nc1)C1=CC(=O)OC1 [Compound 84]
- death rate after 11 days: 100%
